Tests used:
Experiment in all cases: Bliss excess, mean over the matrix (fraction); higher = more synergy
[1] = test system: MDA-MB-468 (Breast Carcinoma)
How it was run: (§1)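 After 24 hours at 37°C and 5% CO2 in 1536-well plates, cells in DMEM/F12 or RPMI plus 10% FBS received two-drug dose matrices for 72 hours. Viability came from CellTiter-Glo 2.0 luminescence and was scaled as inhibition, anchored at 0 by vehicle wells and at 1 by blank wells. Combination Emax is taken as the second-highest inhibition in the matrix, and Bliss excess as the observed combination effect less EA + EB − EA·EB, with EA and EB the single-agent effects.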

[2] = test system: UMC-11 (Other Solid Carcinomas)
How it was run: as §1

[3] = test system: RPMI-6666 (Non-Cancerous)
How it was run: as §1

[4] = test system: OVCAR-8 (Ovarian Carcinoma)
How it was run: as §1

[5] = test system: SUP-T1 (T-Lymphoblastic Leukemia)
How it was run: as §1

[6] = test system: SU-DHL-6 (B-Cell Non-Hodgkin's Lymphoma)
How it was run: as §1

[7] = test system: LoVo (Colorectal Carcinoma)
How it was run: as §1

Mewo (Melanoma) = test system: Mewo (Melanoma)
How it was run: as §1

[8] = test system: HDLM-2 (Hodgkin's Lymphoma)
How it was run: as §1

[9] = test system: MHH-PREB-1 (B-Cell Non-Hodgkin's Lymphoma)
How it was run: as §1

[10] = test system: LU-139 (Small Cell Lung Carcinoma)
How it was run: as §1

[11] = test system: CAL-51 (Breast Carcinoma)
How it was run: as §1

NCI-H28 (Mesothelioma) = test system: NCI-H28 (Mesothelioma)
How it was run: as §1

[12] = test system: 8305C (Thyroid Gland Carcinoma)
How it was run: as §1

[13] = test system: EN (Endometrial Carcinoma)
How it was run: as §1

[14] = test system: PCI-30 (Head and Neck Carcinoma)
How it was run: as §1

NCI-H2461 (Mesothelioma) = test system: NCI-H2461 (Mesothelioma)
How it was run: as §1

[15] = test system: NCI-H747 (Colorectal Carcinoma)
How it was run: as §1

[16] = test system: 639-V (Bladder Carcinoma)
How it was run: as §1

SMILES	Bliss excess [1]	Bliss excess [2]	Bliss excess [3]	Bliss excess [4]	Bliss excess [5]	Bliss excess [6]	Bliss excess [7]	Bliss excess (Mewo (Melanoma))	Bliss excess [8]	Bliss excess [9]	Bliss excess [10]	Bliss excess [11]	Bliss excess (NCI-H28 (Mesothelioma))	Bliss excess [12]	Bliss excess [13]	Bliss excess [14]	Bliss excess (NCI-H2461 (Mesothelioma))	Bliss excess [15]	Bliss excess [16]
CN(C)CCCOc1ccc(-c2ccc3ncc4c(c3c2)n(C2CCOCC2)c(=O)n4C)cn1 [AZD0156] + O=C(c1cc(Cc2n[nH]c(=O)c3ccccc23)ccc1F)N1CCN(C(=O)C2CC2)CC1 [Olaparib] (first compound max 3 µM, partner max 3 µM)	0.0645	0.0204	0.119	0.0073	0.0598	0.125	0.0346	-0.0711	0.0319	0.0175	0.0352	0.051	-0.0415	-0.014	-0.0292	-0.0129	-0.0194	-0.0461	0.0535
COc1nnc2ccc(N3CCC(c4ccc(OCCN5CCN(C)C(=O)[C@H]5C)cc4)CC3)nn12 [AZD5153] + CCN(CCO)CCCOc1ccc2c(Nc3cc(CC(=O)Nc4cccc(F)c4)[nH]n3)ncnc2c1 [AZD2811] (first compound max 1 µM, 7x7, partner max 1 µM)	–	-0.123	-0.0656	-0.0131	0.0027	-0.0215	-0.0623	-0.0578	0.0003	0.0074	0.0203	-0.0038	-0.0415	-0.0629	-0.0918	-0.0568	-0.0421	-0.0623	-0.063
COc1nnc2ccc(N3CCC(c4ccc(OCCN5CCN(C)C(=O)[C@H]5C)cc4)CC3)nn12 [AZD5153] + C[C@@H]1COCCN1C2=NC(=NC(=C2)C3(CC3)[S@](=N)(=O)C)C4=C5C=CNC5=NC=C4 [AZD6738] (first compound max 1 µM, 7x7, partner max 10 µM)	–	0.0169	-0.17	0.0047	-0.0445	-0.0505	0.0603	-0.007	-0.0567	0.0605	0.01	0.0189	0.0141	-0.0088	0.0191	-0.014	-0.0571	0.0079	0.0933
COc1nnc2ccc(N3CCC(c4ccc(OCCN5CCN(C)C(=O)[C@H]5C)cc4)CC3)nn12 [AZD5153] + Cc1c2c(nn1C)CSCc1cc(n(C)n1)CSc1cc(c3ccccc3c1)OCCCc1c(C(=O)O)n(C)c3c-2c(Cl)ccc13 [AZD5991] (first compound max 1 µM, 7x7, partner max 1 µM)	–	0.0518	-0.0409	0.0205	-0.021	-0.0326	-0.0383	-0.0453	-0.0401	-0.0418	-0.0069	0.0291	-0.0976	-0.0922	0.0144	-0.0218	-0.0189	-0.0442	-0.0552
COc1nnc2ccc(N3CCC(c4ccc(OCCN5CCN(C)C(=O)[C@H]5C)cc4)CC3)nn12 [AZD5153] + Cn1cnc2c(F)c(Nc3ccc(Br)cc3Cl)c(C(=O)NOCCO)cc21 [Selumetinib] (first compound max 1 µM, 7x7, partner max 10 µM)	–	-0.031	-0.0462	0.0159	-0.052	-0.0278	0.065	0.0325	-0.0407	-0.0323	0.0169	0.0099	-0.0199	-0.0323	0.023	-0.0426	-0.0415	-0.0727	-0.0459
NC1(C(=O)N[C@@H](CCO)c2ccc(Cl)cc2)CCN(c2ncnc3[nH]ccc23)CC1 [Capivasertib] + CC(=O)c1c(C)c2cnc(Nc3ccc(N4CCNCC4)cn3)nc2n(C2CCCC2)c1=O [Palbociclib] (first compound max 10 µM, 7x7, partner max 10 µM)	-0.0075	0.039	-0.0423	-0.0017	-0.0239	0.0059	-0.03	-0.0588	-0.0222	-0.0158	-0.0256	0.0262	-0.0343	-0.0461	-0.0165	-0.0554	-0.0609	-0.0032	-0.0612
NC1(C(=O)N[C@@H](CCO)c2ccc(Cl)cc2)CCN(c2ncnc3[nH]ccc23)CC1 [Capivasertib] + CC(C)n1c(=O)n(C)c2cnc3cc(F)c(-c4ccc(OCCCN5CCCCC5)nc4)cc3c21 [AZD1390] (first compound max 10 µM, 7x7, partner max 0.3 µM)	-0.0464	-0.0807	-0.08	-0.0304	-0.0615	-0.0071	-0.043	-0.0597	-0.0002	-0.0353	-0.0204	-0.0972	-0.0776	-0.0773	-0.0625	-0.0488	-0.0579	-0.0791	-0.0376
NC1(C(=O)N[C@@H](CCO)c2ccc(Cl)cc2)CCN(c2ncnc3[nH]ccc23)CC1 [Capivasertib] + CCN(CCO)CCCOc1ccc2c(Nc3cc(CC(=O)Nc4cccc(F)c4)[nH]n3)ncnc2c1 [AZD2811] (first compound max 10 µM, 7x7, partner max 1 µM)	-0.063	-0.0195	-0.133	0.001	0.0016	0.0406	-0.0387	0.0228	0.0228	-0.0306	0.0616	0.0519	-0.0484	0.0022	-0.0464	-0.0595	-0.0811	-0.0255	0.0193
NC1(C(=O)N[C@@H](CCO)c2ccc(Cl)cc2)CCN(c2ncnc3[nH]ccc23)CC1 [Capivasertib] + COc1nnc2ccc(N3CCC(c4ccc(OCCN5CCN(C)C(=O)[C@H]5C)cc4)CC3)nn12 [AZD5153] (first compound max 10 µM, 7x7, partner max 1 µM)	-0.0281	0.0063	-0.0305	0.0505	-0.0296	-0.0424	0.042	-0.0532	-0.0507	-0.0154	-0.0574	0.0957	-0.062	0.014	0.0304	0.0406	-0.0007	-0.042	0.0409
C[C@@H](c1ccc2nccn2c1)n1nnc2ncc(-c3cnn(C)c3)nc21 [Savolitinib] + CC1(C)CCC(CN2CCN(c3ccc(C(=O)NS(=O)(=O)c4ccc(NCC5CCOCC5)c([N+](=O)[O-])c4)c(Oc4cnc5[nH]ccc5c4)c3)CC2)=C(c2ccc(Cl)cc2)C1 [Venetoclax] (first compound max 1 µM, 7x7, partner max 1 µM)	–	-0.0303	-0.0557	-0.035	-0.0456	0.0481	-0.0394	-0.0647	-0.0465	-0.0286	-0.0256	-0.0522	-0.0481	-0.115	-0.0643	-0.0899	-0.0641	-0.0817	-0.112
C[C@@H](c1ccc2nccn2c1)n1nnc2ncc(-c3cnn(C)c3)nc21 [Savolitinib] + Cc1c2c(nn1C)CSCc1cc(n(C)n1)CSc1cc(c3ccccc3c1)OCCCc1c(C(=O)O)n(C)c3c-2c(Cl)ccc13 [AZD5991] (first compound max 1 µM, 7x7, partner max 1 µM)	–	-0.0026	-0.0329	-0.0327	-0.0571	-0.013	-0.0331	-0.0237	-0.0099	-0.0375	-0.0213	-0.0115	-0.0643	-0.0781	-0.0027	-0.0878	-0.048	-0.0465	-0.111
Cn1cnc2c(F)c(Nc3ccc(Br)cc3Cl)c(C(=O)NOCCO)cc21 [Selumetinib] + C=CCn1c(=O)c2cnc(Nc3ccc(N4CCN(C)CC4)cc3)nc2n1-c1cccc(C(C)(C)O)n1 [AZD1775] (first compound max 10 µM, partner max 1 µM)	–	0.0137	0.023	0.0202	-0.0663	-0.0229	-0.0105	-0.0304	-0.092	-0.0531	0.0238	-0.0175	-0.0376	-0.0383	-0.126	-0.0183	-0.0676	-0.0761	-0.0207
Cn1cnc2c(F)c(Nc3ccc(Br)cc3Cl)c(C(=O)NOCCO)cc21 [Selumetinib] + CC(C)n1c(=O)n(C)c2cnc3cc(F)c(-c4ccc(OCCCN5CCCCC5)nc4)cc3c21 [AZD1390] (first compound max 10 µM, 7x7, partner max 0.3 µM)	–	-0.0422	-0.0234	-0.0254	-0.0481	-0.0323	-0.0325	-0.0086	-0.0509	-0.0218	-0.0259	-0.0271	-0.0403	-0.057	-0.0086	-0.0208	-0.0377	-0.0334	-0.0783
Cn1cnc2c(F)c(Nc3ccc(Br)cc3Cl)c(C(=O)NOCCO)cc21 [Selumetinib] + CCN(CCO)CCCOc1ccc2c(Nc3cc(CC(=O)Nc4cccc(F)c4)[nH]n3)ncnc2c1 [AZD2811] (first compound max 10 µM, 7x7, partner max 1 µM)	–	-0.0446	0.0696	0.0121	0.0328	0.0923	0.0139	0.0389	-0.0267	-0.0203	0.0062	0.0356	-0.0745	-0.0075	-0.0862	-0.0396	-0.0026	-0.0428	-0.0438
Cn1cnc2c(F)c(Nc3ccc(Br)cc3Cl)c(C(=O)NOCCO)cc21 [Selumetinib] + C[C@@H]1COCCN1C2=NC(=NC(=C2)C3(CC3)[S@](=N)(=O)C)C4=C5C=CNC5=NC=C4 [AZD6738] (first compound max 10 µM, 7x7, partner max 10 µM)	–	0.0001	-0.0157	-0.0197	-0.0747	0.0102	-0.0381	-0.0236	-0.0422	-0.0416	-0.0259	0.0209	-0.0096	-0.0238	-0.0228	-0.0327	-0.026	0.002	0.0585

From the supplement of paper PMC11061612
